From patent US8759480B2, “Contoxin analogues and methods for synthesis of intramolecular dicarba bridge-containing peptides” (Syngene Limited, priority 2006, dated 2014)

Test system: neuronal-type nicotinic receptors
Assay type: cell-based, bovine

CN1CCCC1c1cccnc1 (stereo not shown) [NICOTINE, nicotine, reference compound]
Adrenaline Release 1st: 4.31%
Adrenaline Release 2nd: 4.52%
Adrenaline Release 3rd: 4.52%
Adrenaline Release 4th: 4.48%
Adrenaline Release % control: 100.000%
Adrenaline Release mean: 4.46%
Noradrenaline Release 1st: 6.62%
Noradrenaline Release 2nd: 6.89%
Noradrenaline Release 3rd: 6.99%
Noradrenaline Release 4th: 6.89%
Noradrenaline Release % control: 100.000%
Noradrenaline Release mean: 6.85%
noradrenaline released, basal release (0.72%) subtracted: 6.13%
